Source: patent US20240010680A1, “PEPTIDE DISINFECTANT FOR PREVENTING CORONAVIRUSES” (Xiamen University, priority 2021, published 2024)
Where no end group is shown, it is not given here.

Target: hACE2 (Homo sapiens, UniProt Q9BYF1)
Test: Biacore T200 molecular binding (affinity analysis) of peptides on a CM5-hACE2 chip
Source text: Embodiment 1: Testing a Binding Capacity Between Peptide1 & Peptide2 and Derivatives Thereof and hACE2 Based on a Biacore Molecular Binding System (e.g., GE Biacore T200)
Apparatus: GE Biacore T200.
Materials and reagents: Series S Sensor Chip CM5 (GE Life100530), hACE2 purified protein, Peptide1 & Peptide2 and their derivatives (See Table 1), Amine Coupling Kit (GELife100050, Phosphate-buffered saline (PBS), glycine-hydrochloric acid buffer solution (pH 2.5)).
(1) Preparing a Capture Surface and a Binding Experiment
Materials: 1-(3-Dimethylaminopropyl)-3-ethylcarbodiimide hydrochloride (EDC), N-Hydroxysuccinimide (NHS), ethanolamine (an amine coupling kit), PBS, hACE2, Series S Sensor Chip CM5.
Specific Steps: • a. The GE Biacore T200 is started, the Series S Sensor Chip CM5 is embedded into the GE Biacore T200, the PBS is degassed to obtain a degassed PBS, and the degassed PBS is used throughout the experiment; • b. The NHS, the EDC, the ethanolamine, and the hACE2 (1 mg/mL) are placed on a feeding plate of the GE Biacore T200 according to volumes indicated by the GE Biacore T200 using Eppendorf (EP) tubes in sufficient quantities; • c. A sample is injected at a flow rate of 5 μL/min, an activation of the Series S Sensor Chip CM5, amine coupling of the hACE2, and saturating an activated carboxyl group that is uncoupled with the hACE2 using the ethanolamine are sequentially performed to obtain an RUs value of the hACE2, and the RUs value is 14826.0; • d. A mobile solution (the degassed PBS) is closed, a command window is closed, and a report is served to obtain a CM5-hACE2 chip;
(2) Affinity analysis of peptides with hACE from Table 1
Materials: the PBS, the CM5-hACE2 chip, the peptides in the Table 1, and the glycine-hydrochloric acid buffer solution (pH 2.5).
Specific Steps: • a. Preparing different dilutions as samples for testing: the peptides in Table 1 to be tested at a concentration of 3 mmol/L (mM) are dissolved and sequentially diluted into different dilutions of 100 μmol/L (μM), 60 μM, 30 μM, 10 μM, 3 μM, 1 μM, 0.3 μM, and 0 using the PBS to obtain the samples. Each of the different dilutions is ensured to have a volume of no less than 400 μL and separately packaged on EP tubes. The samples are placed on a test plate of the GE Biacore T200, and the test plate is stuck in a test slot; • b. […]

Chain of hACE2 (Q9BYF1 18-805): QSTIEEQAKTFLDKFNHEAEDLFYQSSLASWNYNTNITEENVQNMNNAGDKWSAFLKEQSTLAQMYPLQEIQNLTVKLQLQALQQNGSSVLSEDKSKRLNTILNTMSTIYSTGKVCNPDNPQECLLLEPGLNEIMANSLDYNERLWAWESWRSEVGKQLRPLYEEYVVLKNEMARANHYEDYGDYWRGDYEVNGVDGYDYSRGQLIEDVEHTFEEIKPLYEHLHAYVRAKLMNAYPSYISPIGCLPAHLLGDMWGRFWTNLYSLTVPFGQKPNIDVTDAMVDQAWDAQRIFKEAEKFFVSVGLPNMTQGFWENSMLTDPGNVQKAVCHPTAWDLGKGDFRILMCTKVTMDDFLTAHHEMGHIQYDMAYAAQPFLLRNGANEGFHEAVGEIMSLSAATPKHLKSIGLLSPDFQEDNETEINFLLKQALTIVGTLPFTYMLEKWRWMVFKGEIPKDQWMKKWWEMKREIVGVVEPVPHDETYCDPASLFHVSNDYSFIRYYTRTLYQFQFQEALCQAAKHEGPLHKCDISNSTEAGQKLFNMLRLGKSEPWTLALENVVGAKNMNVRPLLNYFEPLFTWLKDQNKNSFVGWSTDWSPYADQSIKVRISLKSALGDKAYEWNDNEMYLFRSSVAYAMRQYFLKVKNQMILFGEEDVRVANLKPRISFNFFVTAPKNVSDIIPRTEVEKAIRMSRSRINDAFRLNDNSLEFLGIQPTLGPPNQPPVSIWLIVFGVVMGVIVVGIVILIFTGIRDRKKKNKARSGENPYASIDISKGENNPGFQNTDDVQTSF

YTYINK [Peptide22, YTYINK]
Kd: 58.4 µM

YSYINK [Peptide2, YSYINK]
Kd: 95 µM

YKYRYL [Peptide1, YKYRYL]
Kd: 50.6 µM

YRYKYL [Peptide11, YRYKYL]
Kd: 60.7 µM
